The values that follow come from patent US10793559B2, “Chemical compounds” (GlaxoSmithKline Intellectual Property Development Limited, priority 2016, dated 2020).

The structures appear in SMILES notation. “And” between values parts separate entries of the source, which are not always exact repeats. Identical values can stand only once. Counter-ions that a name gives are not always drawn.

Sequence of PI3K-Delta (O00329 whole entry): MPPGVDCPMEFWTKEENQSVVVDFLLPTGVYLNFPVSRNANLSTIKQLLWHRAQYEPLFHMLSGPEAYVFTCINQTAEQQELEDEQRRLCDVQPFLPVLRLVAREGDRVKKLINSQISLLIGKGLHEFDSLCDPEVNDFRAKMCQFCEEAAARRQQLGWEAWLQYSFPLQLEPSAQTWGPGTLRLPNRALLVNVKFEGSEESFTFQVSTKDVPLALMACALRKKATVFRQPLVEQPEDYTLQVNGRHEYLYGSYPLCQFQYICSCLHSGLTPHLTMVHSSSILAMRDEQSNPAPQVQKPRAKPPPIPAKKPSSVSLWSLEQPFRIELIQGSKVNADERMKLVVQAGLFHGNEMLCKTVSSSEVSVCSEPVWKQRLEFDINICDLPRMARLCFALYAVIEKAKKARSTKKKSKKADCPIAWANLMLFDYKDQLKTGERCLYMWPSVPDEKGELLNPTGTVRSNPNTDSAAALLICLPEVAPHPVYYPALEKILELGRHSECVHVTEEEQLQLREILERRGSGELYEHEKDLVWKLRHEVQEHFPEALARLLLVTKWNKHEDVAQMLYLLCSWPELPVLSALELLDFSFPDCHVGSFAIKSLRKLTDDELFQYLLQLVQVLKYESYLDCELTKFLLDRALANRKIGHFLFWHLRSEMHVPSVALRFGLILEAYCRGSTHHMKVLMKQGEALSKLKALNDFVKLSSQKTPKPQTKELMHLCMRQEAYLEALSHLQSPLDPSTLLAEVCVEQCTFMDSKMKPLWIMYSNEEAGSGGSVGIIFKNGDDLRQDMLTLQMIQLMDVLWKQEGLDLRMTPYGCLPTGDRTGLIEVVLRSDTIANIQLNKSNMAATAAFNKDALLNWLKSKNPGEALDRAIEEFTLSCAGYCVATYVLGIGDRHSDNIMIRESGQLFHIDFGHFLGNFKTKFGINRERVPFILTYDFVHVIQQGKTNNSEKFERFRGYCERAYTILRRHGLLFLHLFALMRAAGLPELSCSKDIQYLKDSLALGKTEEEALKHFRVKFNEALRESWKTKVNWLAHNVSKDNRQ
Sequence of PI3K-Delta (P27986 whole entry partner): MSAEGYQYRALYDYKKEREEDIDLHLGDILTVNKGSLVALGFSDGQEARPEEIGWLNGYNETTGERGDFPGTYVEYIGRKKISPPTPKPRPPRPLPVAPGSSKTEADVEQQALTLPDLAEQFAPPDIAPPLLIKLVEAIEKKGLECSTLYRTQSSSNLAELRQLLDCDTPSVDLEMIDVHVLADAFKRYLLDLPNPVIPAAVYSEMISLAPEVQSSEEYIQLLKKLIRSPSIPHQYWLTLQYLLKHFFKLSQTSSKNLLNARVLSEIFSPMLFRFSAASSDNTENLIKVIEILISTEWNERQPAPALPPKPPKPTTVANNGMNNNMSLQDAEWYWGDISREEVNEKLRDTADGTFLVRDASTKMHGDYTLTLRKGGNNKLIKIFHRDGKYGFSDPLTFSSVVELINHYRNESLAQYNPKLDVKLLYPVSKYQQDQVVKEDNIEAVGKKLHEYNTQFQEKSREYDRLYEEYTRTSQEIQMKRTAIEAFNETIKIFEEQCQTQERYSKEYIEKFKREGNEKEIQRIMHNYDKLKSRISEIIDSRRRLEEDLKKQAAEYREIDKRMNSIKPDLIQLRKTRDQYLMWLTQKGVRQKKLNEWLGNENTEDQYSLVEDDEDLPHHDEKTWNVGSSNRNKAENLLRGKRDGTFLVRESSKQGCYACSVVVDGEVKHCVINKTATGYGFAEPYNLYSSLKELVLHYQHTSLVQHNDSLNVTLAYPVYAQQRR

The target in this test is PI3K-Delta (Homo sapiens, UniProt O00329). As to the kind of experiment: PI3K HTRF assay (PI3K Delta). The settings on record: PI3K-Delta 1.5 nM, 80 μM ATP, 10 μM PIP2 final, read-out: mean pIC50 in the PI3K Delta assay (converted). The class given is biochemical. The method, then:
Biological Data PI3K HTRF Assay
The binding of compounds to PI3K-alpha/beta/delta/gamma is determined by homogeneous time resolved fluorescence (HTRF) assays as follows;
Briefly, solid compound is dissolved in 100% DMSO at a concentration of 2 mM. Dilutions are prepared in 100% DMSO using a 1 in 4 serial step dilution. The dilutions are transferred to black low volume Greiner assay plates ensuring that the DMSO concentration is constant across the plate at 1% (0.1 ul/well).
PI3K Reaction Buffer (contains 50 mM HEPES pH7.0 (NaOH), 150 mM NaCl, 10 mM MgCl2, 2.3 mM sodium cholate, 10 μM CHAPS made up in milliQ water). Fresh DTT is added at a final concentration of 1 mM on the day of use. Wortmannin at a concentration sufficient to produce 100% inhibition (8.33e-6 M) is added to column 18 of compound plates.
Enzyme solutions: 1× PI3K assay Buffer containing: • 550 pM PI3K-Alpha enzyme (275 pM final assay concentration) • 800 pM PI3K-Beta enzyme (400 pM final assay concentration) • 3 nM PI3K-Delta enzyme (1.5 nM final assay concentration) • 10 nM PI3K-Gamma enzyme (5 nM final assay concentration)
These concentrations are optimal to achieve a signal:background of between 1.5-4.5. The enzyme solution is added to columns 1-24 (3 ul/well) and plates are incubated for 15 minutes at room temperature.
Substrate solution: 1× PI3K assay buffer containing: • PI3K-Alpha: 500 μM ATP, 20 μM PIP2 and 120 nM biotin-PIP3. (Final assay concentrations are 250 μM ATP, 10 μM PIP2 (both at Km) and 40 nM biotin-PIP3) • PI3K-Beta: 800 μM ATP, 20 μM PIP2 and 120 nM biotin-PIP3. (Final assay concentrations are 400 μM ATP, 10 μM PIP2 (both at Km) and 40 nM biotin-PIP3) • PI3K-Delta: […], 20 μM PIP2 and 120 nM biotin-PIP3. (Final assay concentrations are 80 μM ATP, 10 μM PIP2 (both at Km) and 40 nM biotin-PIP3) • PI3K-Gamma: 30 μM ATP, 20 μM PIP2 and 120 nM biotin-PIP3.
This is added to all wells and plates are incubated for 1 hour at room temperature.
Detection solution: PI3K Detection Buffer (contains 50 mM HEPES pH7.0 (HCl), 150 mM NaCl, 2.3 mM sodium cholate, 10 μM CHAPS, 240 mM potassium fluoride) containing 2 mM DTT (2× final concentration), 90 nM GRP-1 PH domain, 300 nM Streptavidin-APC and 24 nM Europium-anti-GST (6× final concentrations)
This is mixed left at room temperature (protected from light).
STOP solution: PI3K STOP Buffer (contains 50 mM HEPES pH7.0 (HCl), 150 mM NaCl, 2.3 mM sodium cholate, 10 μM CHAPS, 150 mM EDTA).
Detection solution is diluted 1:1 with STOP solution and added to all wells (3 ul/well). Plates are covered and incubated on the bench for 45-60 minutes. Plates are read on a PerkinElmer Envision, measuring TR-FRET between the complex formed between the GST-tagged PH domain and biotinylated PIP3 which both recruit fluorophores (Europium-labelled anti-GST & Strep-APC respectively). […], this complex is disrupted by the competitive action of non-biotinylated PIP3 (formed in the assay by the phosphorylation of PIP2 by the kinase & ATP). From this, the ratio of acceptor/donor was calculated (Aex=317 nm, Aem donor=615 nm, em acceptor=665 nm) and used for data analysis.
As for `COc1ncc(N2CCOCC2)cc1S(=O)(=O)Nc1ccnc(-c2ccc(CN3CCN(C(C)C)CC3)cc2F)c1` [Example 1, N-(2-(2-Fluoro-4-((4-isopropylpiperazin-1-yl)methyl)phenyl)pyridin-4-yl)-2-methoxy-5-morpholinopyridine-3-sulfonamide], the IC50 is 1 nM and ≤ 3.16 nM.

In the case of `COc1ncc(N2CCOCC2)cc1S(=O)(=O)Nc1ccnc(-c2ccc(CN3CCN(C(C)(C)C)CC3)cc2F)c1` [Example 2, N-(2-(4-((4-(tert-Butyl)piperazin-1-yl)methyl)-2-fluorophenyl)pyridin-4-yl)-2-methoxy-5-morpholinopyridine-3-sulfonamide], the IC50 is ≤ 3.16 nM.

For the molecule `COc1ncc(N2CCOCC2)cc1S(=O)(=O)Nc1ccnc(-c2ccc(CN3CCN(C(C)C)CC3)cc2)c1` [Example 3, N-(2-(4-((4-Isopropylpiperazin-1-yl)methyl)phenyl)pyridin-4-yl)-2-methoxy-5-morpholinopyridine-3-sulfonamide], the IC50 is ≤ 3.16 nM.

Regarding `COc1ncc(N2CCOCC2)cc1S(=O)(=O)Nc1ccnc(-c2ccc(CN3CCN(C(C)C)CC3)c(F)c2)c1` [Example 5, N-(2-(3-Fluoro-4-((4-isopropylpiperazin-1-yl)methyl)phenyl)pyridin-4-yl)-2-methoxy-5-morpholinopyridine-3-sulfonamide], the IC50 is ≤ 3.16 nM.

`COc1ncc(N2CCOCC2)cc1S(=O)(=O)Nc1ccnc(-c2ccc(CN3CCN(C(C)(C)C)CC3)cc2)c1` [Example 6, N-(2-(4-((4-(tert-Butyl)piperazin-1-yl)methyl)phenyl)pyridin-4-yl)-2-methoxy-5-morpholinopyridine-3-sulfonamide]: the IC50 is ≤ 3.16 nM.

`COc1ncc(N2CCOCC2)cc1S(=O)(=O)Nc1ccnc(-c2ccc(CN3CCN(C4CCC4)CC3)cc2)c1` [Example 7]: the IC50 was ≤ 3.16 nM.

With `COc1ncc(N2CCOCC2)cc1S(=O)(=O)Nc1ccnc(-c2c(F)cc(CN3CCN(C(C)C)CC3)cc2F)c1` [Example 8, N-(2-(2,6-Difluoro-4-((4-isopropylpiperazin-1-yl)methyl)phenyl)pyridin-4-yl)-2-methoxy-5-morpholinopyridine-3-sulfonamide], the IC50 was ≤ 3.16 nM.

In the case of `CCC(C)N1CCN(Cc2ccc(-c3cc(NS(=O)(=O)c4cc(N5CCOCC5)cnc4OC)ccn3)cc2)CC1` (stereo not drawn) [Example 9], the IC50 is ≤ 3.16 nM.

Regarding `COc1ncc(N2CCOCC2)cc1S(=O)(=O)Nc1ccnc(-c2cc(F)c(CN3CCN(C(C)C)CC3)c(F)c2)c1` [Example 12, N-(2-(3,5-Difluoro-4-((4-isopropylpiperazin-1-yl)methyl)phenyl)pyridin-4-yl)-2-methoxy-5-morpholinopyridine-3-sulfonamide], the IC50 was ≤ 3.16 nM.

As for `COc1ncc(N2CCOCC2)cc1S(=O)(=O)Nc1ccnc(-c2ccc(CN3CCN(C4COC4)CC3)cc2)c1` [Example 13], the IC50 was ≤ 3.16 nM.

For `COc1ncc(N2CCOCC2)cc1S(=O)(=O)Nc1ccnc(-c2ccc(CN3CCN(C(C)C)CC3)c(F)c2F)c1` [Example 14, N-(2-(2,3-Difluoro-4-((4-isopropylpiperazin-1-yl)methyl)phenyl)pyridin-4-yl)-2-methoxy-5-morpholinopyridine-3-sulfonamide], the IC50 is ≤ 3.16 nM.

Consider `COc1ncc(N2CCOCC2)cc1S(=O)(=O)Nc1ccnc(-c2ccc(CN3CCN(C4COC4)CC3)cc2F)c1` [Example 15, N-(2-(2-Fluoro-4-((4-(oxetan-3-yl)piperazin-1-yl)methyl)phenyl)pyridin-4-yl)-2-methoxy-5-morpholinopyridine-3-sulfonamide, 3 formic acid salt], for which the IC50 was ≤ 3.16 nM.

For the molecule `COc1ncc(N2CCOCC2)cc1S(=O)(=O)Nc1ccnc(-c2ccc(CN3CCN(C4CCC4)CC3)cc2F)c1` [Example 16, N-(2-(4-((4-Cyclobutylpiperazin-1-yl)methyl)-2-fluorophenyppyridin-4-yl)-2-methoxy-5-morpholinopyridine-3-sulfonamide, 2.5 formic acid salt], the IC50 is ≤ 3.16 nM.

As to `COc1ncc(N2CCOCC2)cc1S(=O)(=O)Nc1ccnc(-c2cc(F)c(CN3CCN(C(C)C)CC3)cc2F)c1` [Example 17, N-(2-(2,5-Difluoro-4-((4-isopropylpiperazin-1-yl)methyl)phenyl)pyridin-4-yl)-2-methoxy-5-morpholinopyridine-3-sulfonamide], the IC50 was ≤ 3.16 nM.

On to `COCCN1CCN(Cc2ccc(-c3cc(NS(=O)(=O)c4cc(N5CCOCC5)cnc4OC)ccn3)c(F)c2)CC1` [Example 18, N-(2-(2-Fluoro-4-((4-(2-methoxyethyl)piperazin-1-yl)methyl)phenyl)pyridin-4-yl)-2-methoxy-5-morpholinopyridine-3-sulfonamide, 1.2 formic acid salt], for which the IC50 was ≤ 3.16 nM.

Turning to `COc1ncc(N2CCOCC2)cc1S(=O)(=O)Nc1ccnc(-c2ccc(CN3CCC(C)C3)cc2F)c1` (stereo not drawn) [Example 19, N-(2-(2-fluoro-4-((3-methylpyrrolidin-1-yl)methyl)phenyl)pyridin-4-yl)-2-methoxy-5-morpholinopyridine-3-sulfonamide], the IC50 is ≤ 3.16 nM.

Consider `COc1ncc(N2CCOCC2)cc1S(=O)(=O)Nc1ccnc(-c2ccc(CN3CCCCC3)cc2F)c1` [Example 21, N-(2-(2-fluoro-4-(piperidin-1-ylmethyl)phenyl)pyridin-4-yl)-2-methoxy-5-morpholinopyridine-3-sulfonamide], for which the IC50 is ≤ 3.16 nM.

With `COc1ncc(N2CCOCC2)cc1S(=O)(=O)Nc1ccnc(-c2ccc(CN3CCC(C(C)(C)O)CC3)cc2F)c1` [Example 22], the IC50 is ≤ 3.16 nM.

With `COc1ncc(N2CCOCC2)cc1S(=O)(=O)Nc1ccnc(-c2ccc(CN3C[C@@H](C)O[C@@H](C)C3)cc2)c1` [Example 23, N-(2-(4-(((cis)-2,6-Dimethylmorpholino)methyl)phenyl)pyridin-4-yl)-2-methoxy-5-morpholinopyridine-3-sulfonamide], the IC50 was ≤ 3.16 nM.

Take `COc1ncc(N2CCOCC2)cc1S(=O)(=O)Nc1ccnc(-c2ccc(CN3CCOCC3)cc2)c1` [Example 24, 2-Methoxy-5-morpholino-N-(2-(4-(morpholinomethyl)phenyl)pyridin-4-yl)pyridine-3-sulfonamide]: the IC50 is ≤ 3.16 nM.

Consider `COc1ncc(N2CCOCC2)cc1S(=O)(=O)Nc1ccnc(-c2ccc(CN3CCNCC3)cc2F)c1` [Example 25, N-(2-(2-Fluoro-4-(piperazin-1-ylmethyl)phenyl)pyridin-4-yl)-2-methoxy-5-morpholinopyridine-3-sulfonamide], for which the IC50 was ≤ 3.16 nM.

As for `CC(C)N1CCN(Cc2ccc(-c3cc(NS(=O)(=O)c4cc(N5CCOCC5)cnc4N(C)C)ccn3)c(F)c2)CC1` [Example 26, 2-(Dimethylamino)-N-(2-(2-fluoro-4-((4-isopropylpiperazin-1-yl)methyl)phenyl)pyridin-4-yl)-5-morpholinopyridine-3-sulfonamide], the IC50 was ≤ 3.16 nM.

For the molecule `CN(C)c1ncc(N2CCOCC2)cc1S(=O)(=O)Nc1ccnc(-c2ccc(CN3CCN(C(C)(C)C)CC3)cc2F)c1` [Example 27, N-(2-(4-((4-(tert-Butyl)piperazin-1-yl)methyl)-2-fluorophenyl)pyridin-4-yl)-2-(dimethylamino)-5-morpholinopyridine-3-sulfonamide], the IC50 was ≤ 3.16 nM.

On to `COc1ncc(N2CCOCC2)cc1S(=O)(=O)Nc1ccnc(-c2cc(Cl)c(CN3CCN(C(C)C)CC3)cc2F)c1` [Example 35, N-(2-(5-Chloro-2-fluoro-4-((4-isopropylpiperazin-1-yl)methyl)phenyl)pyridin-4-yl)-2-methoxy-5-morpholinopyridine-3-sulfonamide], for which the IC50 was ≤ 3.16 nM.
